Experimental data from PMC10917340, “Coxsackievirus infection induces direct pancreatic β cell killing but poor antiviral CD8^+ T cell responses” (Science Advances, 2024).
Where two headings read alike, the source gives them in different places.

Key:
[1] = molecular target: T1, HLA-A2 (Homo sapiens, UniProt P04439, D140Y/D185E/D98H/E176V/E277Q/G131W/G231S/I119V/I121R/I166T/I218V/N151K/N90K/P208A/P217A/Q86G/Q94H/R138H/R169H); assay: In vitro HLA-I binding assay (bead-captured folded monomers)
T1 construct: purchased ImmunAware

[2] = tested on: circulating CD8+ T cells; assay: Combinatorial HLA-A2 multimer (MMr) assay, screening round; type: cell-based, human; conditions: for Screening round % effector/memory median (range): HLA-A2, effector/memory (non CD45RA+CCR7+) fraction among MMr+CD8+ T cells; for Screening round Frequency median: HLA-A2 MMr+CD8+ T cells out of total CD8+ T cells, frozen/thawed PBMCs, CVB-seropositive healthy adults, median of donors
[3] = tested on: circulating CD8+ T cells; assay: Combinatorial HLA-A2 multimer (MMr) assay, validation round; type: cell-based, human; conditions: HLA-A2 MMr+CD8+ out of total CD8+ T cells; donors/peptides with <3 MMr+ cells noted as 1.0E-7
[4] = in silico predicted HLA-A2-binding peptides, fig. S2D

Row | Sequence | In vitro binding to HLA-A2 (in words) [1] | Screening round % effector/memory median (range) [2] | Screening round Frequency median [2] | In vitro binding to HLA-A2 (in words) [1, 4] | also measured
1 | GIIYIIYKL [previously reported CVB peptide, IEDB #20311] | did not confirm as binders | – | – | – | –
2 | IMIKSMPAL [CVB1-2-5 60-68, HLA-A2, in silico] | – | 26 (0-70) % | 2.2 E-5 | – | Validation round Frequency median [3]: 1.0 E-7
3 | KLPDALSQM | – | – | – | did not confirm as binders | –
4 | VIASYPWPI | did not confirm as binders | – | – | – | –
5 | VMGDALGSV [ZnT8245-253 peptide homologous to CVB1 150-158] | – | – | – | did not confirm as binders | –
6 | VMIKSLPAL [CVB4-6 60-68, HLA-A2, in silico] | – | 20 (20-20) % | 5.3 E-6 | – | –
